Entries after “also recorded” stand apart in the source; their conditions may differ.
Tested on: mouse fetal liver erythroblasts
Assay: mouse fetal liver erythroblast proliferation in erythropoietin containing medium
Assay type: cell-based
Conditions: approximately 10 uM NUP-52A added to the culture; proliferation monitored daily for two days; comparable to JAK2 inhibitor Ruxolitinib (FIG. 4)
Experimental: FIG. 4. Effect of NUP-52A on cell proliferation, differentiation, and enucleation in comparison to ruxolitinib. Ter119 negative mouse fetal liver erythroblasts were purified and cultured in erythropoietin containing medium. NUP-52A (Panels A, B, and C) or Ruxolitinib (Panels D, E, and F) with indicated concentrations were added to the culture media at the start of culture. The cells were cultured for two days. Cell proliferation, differentiation, and enucleation were analyzed using flow cytometry on day 2.
To screen these compounds, an assay using a well-developed Plek2 functional screening system (28) was performed. In this system, mouse fetal liver erythroid progenitors are purified and cultured in erythropoietin containing medium. These cells undergo rapid proliferation closely mimicking accelerated erythropoiesis in MPNs. In these cells, Plek2 is also highly expressed during the culture. This system then may be utilized to test Plek2 inhibitor compounds.
We used mouse fetal liver erythroblasts to test the compound. Approximately 10 uM NUP-52A was added in the fetal liver erythroblast culture and the proliferation of the cells is monitored daily for two days. […] (See FIG. 4).

SMILES: Clc1ccc2c(N3CCNCC3)cc(-c3c[nH]c4ccccc34)nc2c1 [NUP-52A, 7-chloro-4-(piperazin-1-yl)-2-(1H-indol-3-yl)quinoline]
- effect on the proliferation of erythroblasts: potent effects; also recorded: strong inhibitory effects

— US20240083874A1, “TARGETING PLECKSTRIN-2 FOR TREATING CANCER AND OTHER DISEASES AND DISORDERS” (Northwestern University, priority 2021, published 2024)
